Residues, ends and D or L forms follow the SMILES beside them.
Columns and labels:
[1] = tested on: CD36 knockout (CD36 KO) mice; assay: Example 3: acute cerebral ischemia in CD36 knockout mice; assay type: in vivo, mouse
Method: CD36 knockout (CD36 KO) mice will be subjected to acute cerebral ischemia as described in Example 2. CD36 KO mice will be given either saline vehicle (Veh) (i.p., n=5), peptide conjugates (2 mg/kg or 5 mg/kg, i.p., n=6), aromatic-cationic peptides (e.g., an equivalent molar dose of aromatic-cationic peptide based on the concentration of the aromatic-cationic peptide administered in the peptide conjugate treatment group), SPN10(s) (e.g., an equivalent molar dose of SPN10 based on the concentration of SPN10 administered in the peptide conjugate treatment group), or SPN10(s) in combination with aromatic-cationic peptides (e.g., an equivalent molar dose of SPN10 based on the concentration of SPN10 administered in the peptide conjugate treatment group and an equivalent molar dose of aromatic-cationic peptide based on the concentration of aromatic-cationic peptide administered in the peptide conjugate treatment group) at 0, 6, 24 and 48 hours following a 30 minute period of ischemia. Infarct volume and hemispheric swelling in CD36 KO mice are expected to be similar in subjects receiving saline, SPN10(s) (alone or in combination with aromatic-cationic peptides), aromatic-cationic peptides and peptide conjugates.

[2] = tested on: isolated mitochondria; assay: Example 13: mitochondrial swelling (A540) and cytochrome c release (ELISA)
Source text: MPT pore opening results in mitochondrial swelling. […] Mitochondrial suspensions will be centrifuged and the amount of cytochrome c in the pellet and supernatant will be determined using a commercially available ELISA kit.

[3] = tested on: animal models of ALF; assay: Example 44: animal models of acute liver failure (ALF); conditions: in vivo
Source text: Suitable animal models of ALF utilize surgical procedures, toxic liver injury, or a combination thereof. See Belanger & Butterworth, Metabolic Brain Disease, 20:409-423 (2005). Peptide conjugates, aromatic-cationic peptides, SPN10(s) with or without aromatic-cationic peptides or control vehicle will be administered prior to or simultaneously with a toxic or surgical insult. Hepatic function will be assessed by measuring serum hepatic enzymes (transaminases, alkaline phosphatase), serum bilirubin, serum ammonia, serum glucose, serum lactate, or serum creatinine. Efficacy of SPN10(s) (with or without aromatic-cationic peptides) or conjugates in preventing ALF will be indicated by a reduction in the occurrence or severity of the ALF as indicated by the above markers, as compared to control subjects.

[4] = tested on: murine burn injury model; assay: Example 48: skeletal muscle redox state after burn injury (nitroxide EPR); assay type: in vivo, mouse; conditions: 6-hour time point; i.p. 30 minutes before and immediately after burn
Method: The redox state of the gastrocnemius muscle immediately below a local cutaneous burn (90° C. for 3 sec) will be evaluated by nitroxide EPR. It is anticipated that the redox state in the muscle will be compromised by burn injury, with the most dramatic effect at 6 hours post-burn.
Peptide conjugates (3 mg/kg), aromatic-cationic peptides (an equivalent molar dose of aromatic-cationic peptide based on the concentration of the aromatic-cationic peptide administered in the peptide conjugate treatment group), SPN10(s) (an equivalent molar dose of SPN10 based on the concentration of SPN10 administered in the peptide conjugate treatment group) or SPN10(s) in combination with aromatic-cationic peptides (e.g., an equivalent molar dose of SPN10 based on the concentration of SPN10 administered in the peptide conjugate treatment group and an equivalent molar dose of aromatic-cationic peptide based on the concentration of aromatic-cationic peptide administered in the peptide conjugate treatment group) will be administered i.p. 30 minutes before burn, and immediately after burn.

[5] = tested on: mitochondrial aconitase; assay: Example 53: mitochondrial aconitase activity in burn injury; conditions: mouse, in vivo
Source text: Murine subjects will be subjected to burn injury or sham and administered peptide conjugates, aromatic-cationic peptides, SPN10(s) alone or in combination with aromatic-cationic peptides, or control vehicle as described above. Mitochondria will be isolated from burned and control tissues and mitochondrial aconitase activity assessed using a commercially available kit.

[6] = tested on: human retinal epithelial cells (HREC); assay: Example 55: high glucose-induced injury; assay type: cell-based
Method: Methods of HREC culture useful in the studies of the present technology are known. See generally, Li, et al., Clin. Ophthal. Res. 23:20-2 (2005); Premanand, et al., Invest. Ophthalmol. Vis. Sci. 47:2179-84 (2006). Briefly, HREC cells will be cultured under one of these conditions: 1) normal control; 2) 30 mM glucose; 3) 30 mM glucose+peptide conjugates; 4) 30 mM glucose+an aromatic-cationic peptide; 5) 30 mM glucose+SPN10; 6) 30 mM glucose+SPN10+aromatic-cationic peptides. Survival of HRECs in high glucose co-treated with various concentrations of peptide conjugates (10 nM, 100 nM, 1 μM, 10 μM) will be measured by flow cytometry using Annexin V. See generally, Koopman, et al., Blood 84:1415 (1994); Homburg, et al., Blood X5: 532 (1995); Vermes, et al. J. Immunol. Meth. 184:39 (1995); Fadok, et al., J. Immunol. 148:2207 (1992).
The survival of HRECs in high glucose co-treated with peptide conjugates, aromatic-cationic peptides, or SPN10(s) with or without aromatic-cationic peptides will be tested at 24 hours and 48 hours.
It is expected that glucose (30 mmol/L) will induce cytochrome c release from the mitochondria of HRECs. Fixed HRECs will be immunolabeled with a cytochrome c antibody and a mitochondrial specific protein antibody (HSP60).

[7] = tested on: isolated mitochondrial, cultured cells and animal subjects; assay: Mitochondrial reduction potential; conditions: in vitro and in vivo
Source text: It is anticipated that SPN10(s) (with or without aromatic-cationic peptides) and conjugates will enhance mitochondrial reduction potential in vitro in isolated mitochondrial and in vivo in cultured cells and animal subjects.

## N=C(N)NCCC[C@H](NC(=O)[C@@H](N)Cc1c[nH]c2ccccc12)C(=O)N[C@@H](Cc1c[nH]c2ccccc12)C(=O)N[C@@H](CCCCN)C(N)=O [SPN10, H-L-Trp-L-Arg-L-Trp-L-Lys-NH2] (H-WRWK-NH2)
[1]; compared with saline
  infarct volume and hemispheric swelling in CD36 KO mice: similar
[1]; mouse, in vivo
  GSH depletion in the ipsilateral cortex in CD36 KO mice: fail to further prevent GSH depletion
[2]
  mitochondrial swelling induced by MPP^+: prevent mitochondrial swelling
[2]; pre-treatment
  swelling and cytochrome c release induced by Ca^2+ overload: inhibit swelling and cytochrome c release
[3]
  reduced liver function after toxic or surgical liver insult: attenuate or prevent these effects
[4]
  rate of nitroxide reduction in muscle beneath the burn: significantly increase the rate of nitroxide reduction
[5]
  mitochondrial aconitase activity after burn injury: reduce mitochondrial aconitase activity to sham control levels
[6]; 30 mM glucose
  production of ROS: reduce the production of ROS
[6]; 30 mM glucose, 24 hours and 48 hours
  survival of HRECs in high glucose (Annexin V): significantly improved
[6]; 30 mmol/L glucose, 24 or 48 hours
  glucose-induced release of cytochrome c from mitochondria to cytoplasm: prevent or attenuate this effect
[6]; 24 or 48 hours
  loss of mitochondrial membrane potential by high glucose (TMRM): prevent or attenuate this effect
[7]
  mitochondrial reduction potential: enhance

From US20240108740A1, “THERAPEUTIC COMPOSITIONS INCLUDING SPN10 AND USES THEREOF” (Stealth BioTherapeutics Inc., priority 2022, published 2024)
